US10759766B2, “Certain chemical entities, compositions, and methods” (NeuPharma, Inc., priority 2011, dated 2020)

Experiments:
BRAF V600E = BRAF V600E (Homo sapiens (Human), UniProt P15056, V600E); assay: Z′-LYTE kinase inhibition assay (Invitrogen), BRAF V600E; format: biochemical; conditions: 1 μM compound, Z′-LYTE method; read-out: % inhibition at 1 μM against BRAF V600E
Summary of the method: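 FRET-based Z′-LYTE peptide phosphorylation format in 50 mM HEPES pH 7.5, 0.01% BRIJ-35, 10 mM MgCl2, 1 mM EGTA with ATP. Kinase reaction 60 min at room temperature, then protease development step 60 min at room temperature before fluorescence read. IC50 from compound concentration versus percent inhibition.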

A549 cells = assay: Inhibition of cancer cell growth, MTT assay, A549; format: cell-based; conditions: Homo sapiens, A549, 72 h exposure
Summary of the method: (§1)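 Cells grown in RPMI 1640 with 10% FBS were seeded at about 4000 cells/well, left 24 h, then exposed to compound for 72 h (1% DMSO final). MTT absorbance at 570 nm was compared with viable cells at time of addition to give growth inhibition; IC50 from concentration–inhibition plots, triplicates.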

KDR (VEGFR2) = KDR (VEGFR2) (Homo sapiens (Human), UniProt P35968); assay: Z′-LYTE kinase inhibition assay (Invitrogen), KDR; format: biochemical; conditions: 1 μM compound, Z′-LYTE method; read-out: % inhibition at 1 μM against KDR
Summary of the method: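 Z′-LYTE FRET assay: 10 μL reactions with 0.5–11.7 ng KDR and 2 μM Tyr 01 peptide in 50 mM HEPES pH 7.5, 10 mM MgCl2, 1 mM EGTA, 0.01% BRIJ-35, 1 h at room temperature. Development Reagent B (1:256) added for 60 min, fluorescence read; IC50 from concentration–inhibition curves.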

A375 cells = assay: Inhibition of cancer cell growth, MTT assay, A375; format: cell-based; conditions: Homo sapiens, A-375, 72 h exposure
Summary of the method: as §1

BRAF V600E, sequence (P15056 whole entry V600E): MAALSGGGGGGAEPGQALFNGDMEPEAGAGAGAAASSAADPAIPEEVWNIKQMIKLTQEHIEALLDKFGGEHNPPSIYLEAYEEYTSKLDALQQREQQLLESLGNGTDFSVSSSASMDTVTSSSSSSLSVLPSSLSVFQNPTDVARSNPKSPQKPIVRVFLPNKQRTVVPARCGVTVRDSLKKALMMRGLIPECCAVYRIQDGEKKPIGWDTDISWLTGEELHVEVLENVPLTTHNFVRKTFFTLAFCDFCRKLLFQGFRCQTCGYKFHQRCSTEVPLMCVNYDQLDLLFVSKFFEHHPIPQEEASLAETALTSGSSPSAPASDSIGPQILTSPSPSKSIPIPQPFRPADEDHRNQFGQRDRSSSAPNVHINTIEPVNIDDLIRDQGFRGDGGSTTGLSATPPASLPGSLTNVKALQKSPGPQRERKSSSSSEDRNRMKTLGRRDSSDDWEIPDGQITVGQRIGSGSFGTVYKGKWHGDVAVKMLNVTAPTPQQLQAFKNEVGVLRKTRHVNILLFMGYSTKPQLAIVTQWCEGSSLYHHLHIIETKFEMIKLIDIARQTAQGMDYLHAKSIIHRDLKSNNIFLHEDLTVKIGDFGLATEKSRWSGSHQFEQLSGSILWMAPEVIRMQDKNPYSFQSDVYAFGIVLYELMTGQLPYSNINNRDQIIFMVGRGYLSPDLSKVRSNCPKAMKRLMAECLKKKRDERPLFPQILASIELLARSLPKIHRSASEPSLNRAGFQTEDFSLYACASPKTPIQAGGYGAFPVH
KDR (VEGFR2), sequence (P35968 20-1356): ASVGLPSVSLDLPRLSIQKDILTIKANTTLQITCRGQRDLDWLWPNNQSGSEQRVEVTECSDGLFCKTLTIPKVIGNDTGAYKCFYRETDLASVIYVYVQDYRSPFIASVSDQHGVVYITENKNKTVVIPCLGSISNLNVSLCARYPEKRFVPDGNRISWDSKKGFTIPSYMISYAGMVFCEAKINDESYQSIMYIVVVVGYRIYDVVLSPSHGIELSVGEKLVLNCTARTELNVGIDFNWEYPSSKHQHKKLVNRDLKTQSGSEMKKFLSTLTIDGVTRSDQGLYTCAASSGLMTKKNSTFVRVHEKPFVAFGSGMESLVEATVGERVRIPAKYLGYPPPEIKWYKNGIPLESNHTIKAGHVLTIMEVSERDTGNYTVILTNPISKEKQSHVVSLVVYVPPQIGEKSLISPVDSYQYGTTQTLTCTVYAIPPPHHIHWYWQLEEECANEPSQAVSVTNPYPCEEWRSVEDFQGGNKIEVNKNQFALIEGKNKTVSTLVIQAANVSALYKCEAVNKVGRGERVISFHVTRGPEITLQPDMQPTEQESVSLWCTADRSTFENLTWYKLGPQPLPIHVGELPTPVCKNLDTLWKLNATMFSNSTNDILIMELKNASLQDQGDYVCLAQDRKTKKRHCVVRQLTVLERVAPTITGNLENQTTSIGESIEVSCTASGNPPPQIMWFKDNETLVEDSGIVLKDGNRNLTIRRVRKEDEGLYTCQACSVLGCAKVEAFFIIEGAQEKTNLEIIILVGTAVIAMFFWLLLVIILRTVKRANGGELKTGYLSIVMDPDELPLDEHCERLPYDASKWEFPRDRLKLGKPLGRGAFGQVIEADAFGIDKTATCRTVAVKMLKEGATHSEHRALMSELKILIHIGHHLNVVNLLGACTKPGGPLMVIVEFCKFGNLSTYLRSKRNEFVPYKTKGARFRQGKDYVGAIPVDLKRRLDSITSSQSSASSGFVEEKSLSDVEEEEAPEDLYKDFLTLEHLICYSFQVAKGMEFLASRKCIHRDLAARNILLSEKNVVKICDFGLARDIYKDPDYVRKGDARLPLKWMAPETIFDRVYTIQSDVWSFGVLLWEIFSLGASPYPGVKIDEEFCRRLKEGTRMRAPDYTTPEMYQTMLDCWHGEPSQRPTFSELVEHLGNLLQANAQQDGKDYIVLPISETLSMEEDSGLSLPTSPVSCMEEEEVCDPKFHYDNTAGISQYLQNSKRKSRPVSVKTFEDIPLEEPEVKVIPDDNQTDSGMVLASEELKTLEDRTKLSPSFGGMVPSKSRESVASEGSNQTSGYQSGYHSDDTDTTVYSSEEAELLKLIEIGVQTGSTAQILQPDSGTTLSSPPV

Compound	inhibition at 1 µM (BRAF V600E)	IC50 (A549 cells)	inhibition at 1 µM (KDR (VEGFR2))	IC50 (A375 cells)
NCCNc1cnc2ccc(C(=O)c3cc(NC(=O)Nc4cc(F)cc(F)c4)ccc3F)cc2n1 [Compound C092, 1-(3-(3-((2-aminoethyl)amino)quinoxaline-6-carbonyl)-4-fluorophenyl)-3-(3,5-difluorophenyl)urea]	> 89%	> 5 µM	70 to 89%	1 to 5 µM
O=C(Nc1cccc(C(F)(F)F)c1)Nc1cc(F)c(F)c(C(=O)c2ccc3nccnc3c2)c1 [Compound C042, 1-(3,4-difluoro-5-(quinoxaline-6-carbonyl)phenyl)-3-(3-(trifluoromethyl)phenyl)urea]	> 89%	2 to 5 µM	< 70%	1 to 5 µM
COc1cnc2ccc(C(=O)c3cc(NC(=O)Nc4cccc(F)c4)ccc3F)cc2n1 [Compound C083, 1-(4-fluoro-3-(3-methoxyquinoxaline-6-carbonyl)phenyl)-3-(3-fluorophenyl)urea]	> 89%	> 5 µM	70 to 89%	1 to 5 µM
NCCNc1cnc2ccc(C(=O)c3cc(NC(=O)Nc4ccc(F)c(F)c4)ccc3F)cc2n1 [Compound C091, 1-(3-(3-((2-aminoethyl)amino)quinoxaline-6-carbonyl)-4-fluorophenyl)-3-(3,4-difluorophenyl)urea]	> 89%	> 5 µM	> 89%	1 to 5 µM
O=C(Nc1ccc(F)cc1)Nc1cc(F)cc(C(=O)c2ccc3ncc(N4CCOCC4)nc3c2)c1 [Compound C043, 1-(3-fluoro-5-(3-morpholinoquinoxaline-6-carbonyl)phenyl)-3-(4-fluorophenyl)urea]	> 89%	> 5 µM	< 70%	> 5 µM
O=C(Nc1ccc(F)c(C(=O)c2ccc3ncc(N4CCOCC4)nc3c2)c1)c1cccc(F)c1 [Compound C136]	> 89%	> 5 µM	> 89%	1 to 5 µM
O=C(Nc1ccc(Cl)cc1)Nc1ccc(F)c(C(=O)c2ccc3nccnc3c2)c1 [Compound C074, 1-(4-chlorophenyl)-3-(4-fluoro-3-(quinoxaline-6-carbonyl)phenyl)urea]	> 89%	> 5 µM	< 70%	1 to 5 µM
O=C(Nc1cc(F)cc(Cl)c1)Nc1cc(F)cc(C(=O)c2ccc3nccnc3c2)c1 [Compound C062, 1-(3-chloro-5-fluorophenyl)-3-(3-fluoro-5-(quinoxaline-6-carbonyl)phenyl)urea]	> 89%	2 to 5 µM	< 70%	> 5 µM
O=C(Nc1cccc(F)c1)Nc1cc(F)cc(C(=O)c2ccc3ncc(N4CCOCC4)nc3c2)c1 [Compound C037, 1-(3-fluoro-5-(3-morpholinoquinoxaline-6-carbonyl)phenyl)-3-(3-fluorophenyl)urea]	> 89%	> 5 µM	< 70%	1 to 5 µM
O=C(Nc1cccc(F)c1)Nc1ccc(F)c(C(=O)c2ccc3nccnc3c2)c1F [Compound C011, 1-(2,4-difluoro-3-(quinoxaline-6-carbonyl)phenyl)-3-(3-fluorophenyl)urea]	70 to 89%	> 5 µM	< 70%	> 5 µM
O=C(Nc1cc(F)c(F)c(C(=O)c2ccc3nccnc3c2)c1F)c1ccc(Cl)c(C(F)(F)F)c1 [Compound C140, 4-chloro-N-(2,4,5-trifluoro-3-(quinoxaline-6-carbonyl)phenyl)-3-(trifluoromethyl)benzamide]	70 to 89%	> 5 µM	< 70%	> 5 µM
O=C(Nc1ccc(Cl)c(F)c1)Nc1ccc(F)c(C(=O)c2ccc3nccnc3c2)c1 [Compound C077, 1-(4-chloro-3-fluorophenyl)-3-(4-fluoro-3-(quinoxaline-6-carbonyl)phenyl)urea]	> 89%	> 5 µM	< 70%	1 to 5 µM
O=C(Nc1ccc(Cl)c(F)c1)Nc1ccc(F)c(C(=O)c2ccc3ncc(N4CCOCC4)nc3c2)c1 [Compound C052, 1-(4-chloro-3-fluorophenyl)-3-(4-fluoro-3-(3-morpholinoquinoxaline-6-carbonyl)phenyl)urea]	> 89%	< 2 µM	70 to 89%	< 1 µM
O=C(Nc1cc(F)cc(C(=O)c2ccc3ncc(N4CCOCC4)nc3c2)c1)Nc1ccc(Cl)c(F)c1 [Compound C051, 1-(4-chloro-3-fluorophenyl)-3-(3-fluoro-5-(3-morpholinoquinoxaline-6-carbonyl)phenyl)urea]	> 89%	2 to 5 µM	< 70%	1 to 5 µM
O=C(Nc1ccc(F)c(C(=O)c2ccc3nccnc3c2)c1F)c1cccc(F)c1 [Compound C113, N-(2,4-difluoro-3-(quinoxaline-6-carbonyl)phenyl)-3-fluorobenzamide]	70 to 89%	> 5 µM	< 70%	> 5 µM
O=C(Nc1cccc(C(=O)c2ccc3ncc(N4CCCC4)nc3c2)c1)c1ccc(Cl)c(C(F)(F)F)c1 [Compound C123, 4-chloro-N-(3-(3-(pyrrolidin-1-yl)quinoxaline-6-carbonyl)phenyl)-3-(trifluoromethyl)benzamide]	70 to 89%	> 5 µM	70 to 89%	> 5 µM
O=C(Nc1cc(F)cc(C(=O)c2ccc3nccnc3c2)c1)Nc1ccc(Cl)c(F)c1 [Compound C061, 1-(4-chloro-3-fluorophenyl)-3-(3-fluoro-5-(quinoxaline-6-carbonyl)phenyl)urea]	> 89%	2 to 5 µM	< 70%	> 5 µM
O=C(Nc1ccc(C(F)(F)F)cc1)Nc1cc(F)cc(C(=O)c2ccc3ncc(N4CCOCC4)nc3c2)c1 [Compound C048, 1-(3-fluoro-5-(3-morpholinoquinoxaline-6-carbonyl)phenyl)-3-(4-(trifluoromethyl)phenyl)urea]	> 89%	2 to 5 µM	< 70%	< 1 µM
O=C(Nc1cccc(F)c1)Nc1cc(F)c(F)c(C(=O)c2ccc3nccnc3c2)c1 [Compound C024, 1-(3,4-difluoro-5-(quinoxaline-6-carbonyl)phenyl)-3-(3-fluorophenyl)urea]	> 89%	< 2 µM	70 to 89%	> 5 µM
O=C(Nc1ccc(C(F)(F)F)cc1)Nc1ccc(F)c(C(=O)c2ccc3nccnc3c2)c1 [Compound C075, 1-(4-fluoro-3-(quinoxaline-6-carbonyl)phenyl)-3-(4-(trifluoromethyl)phenyl)urea]	> 89%	< 2 µM	< 70%	< 1 µM
O=C(Nc1cccc(C(=O)c2ccc3ncc(N4CCOCC4)nc3c2)c1)c1cccc(F)c1 [Compound C118, 3-fluoro-N-(3-(3-morpholinoquinoxaline-6-carbonyl)phenyl)benzamide]	> 89%	2 to 5 µM	70 to 89%	1 to 5 µM
